# Test results published in patent US20240150339A1, “Compounds and Their Use as PDE4 Activators” (Mironid Limited, priority 2021, published 2024).
# System: m-IMCD3 cells
# Test: Inhibition of PGE2-stimulated in vitro cyst formation in 3D culture of m-IMCD3 cells
# Assay type: cell-based, mouse
# Settings: Mus musculus, mIMCD3, 144 h; 10 μM test compound; mean cyst area (%) compared to 100% for (DMSO + PGE2) and 0% for DMSO control; 100 nM PGE2; 6 days; read-out: % Cyst area after incubation with 10 μM test compound
# Procedure, shortened: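 Mouse m-IMCD3 cells grown in 3D collagen I/Matrigel gels. From 18-24 h after plating, compound (0.1% DMSO) plus 100 nM PGE2 were added and replenished at 2-3 days. After 6 days, imaging gave mean cyst area, scaled to 100% for DMSO+PGE2 and 0% for DMSO alone.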
compound,measurement,value
"Cc1ncccc1-c1nc2ccc(C(=O)N[C@H]3CCOc4ccccc43)cc2s1 [Example 7, (S)-N-(chroman-4-yl)-2-(2-methylpyridin-3-yl)benzo[d]thiazole-6-carboxamide]",activity at 10 µM,-7%
